The results in this text go back to patent US12600940B2, “Strains and processes for single cell protein or biomass production” (priority 2019, dated 2026).

In brackets after ≈: the same amount, converted by molar mass.

Experiment [1] relates to VTT-E-193585 strain. In words: Antibiotic susceptibility (MIC), CLSI M07 broth microdilution / agar dilution. Format: cell-based, Xanthobacter sp. Conditions: VTT-E-193585, 48 h ± 1 h, aerobic, +35±2° C., cation-adjusted Mueller Hinton Broth, fosfomycin by agar dilution; for MIC: read-out: Minimum Inhibitory Concentration (MIC).
The test system of experiment [2] is VTT-E-193585 strain. Described as above. Format: cell-based, Xanthobacter sp. The conditions noted are these: comparison of MIC values of Table 5. As for the experimental part:
(§1) Escherichia coli ATCC 25922 was used as quality control strain and it was incubated in aerobic conditions, at +35±2° C. for 18±2 hours.

Experiment [3] relates to Escherichia coli ATCC 25922. Briefly: Antibiotic susceptibility (MIC), quality control strain. Format: cell-based. Conditions: E. coli ATCC 25922, 18 h ± 2 h, aerobic, +35±2° C.; for MIC: Escherichia coli, ATCC25922, read-out: Minimum Inhibitory Concentration (MIC). On the procedure:
as §1

`C[C@@H]1O[C@@H]1P(=O)(O)O` [Fosfomycin, fosfomycin]: the MIC was 32 µg/mL (≈ 232 µM) in the experiment on VTT-E-193585 strain [1] and 0.5 µg/mL (≈ 3.62 µM) in experiment [3]. Moreover, in the experiment with VTT-E-193585 strain [2], the “MIC for VTT-E-193585 compared with E. coli ATCC 25922” value is given as “higher”.
In the case of `NC[C@H]1O[C@H](O[C@H]2[C@H](O)[C@@H](O[C@H]3O[C@H](CO)[C@@H](O)[C@H](N)[C@H]3O)[C@H](N)C[C@@H]2N)[C@H](O)[C@@H](O)[C@@H]1O` [Kanamycin, kanamycin], the MIC stood at 2 µg/mL (≈ 4.13 µM) in the experiment on VTT-E-193585 strain [1] and 4 µg/mL (≈ 8.26 µM) in experiment [3].
On the same counts, the results for `CN(C)[C@@H]1C(O)=C(C(N)=O)C(=O)[C@@]2(O)C(O)=C3C(=O)c4c(O)cccc4[C@@](C)(O)[C@H]3C[C@@H]12` [Tetracycline, tetracycline] are 0.25 µg/mL (≈ 0.563 µM) and 1 µg/mL (≈ 2.25 µM).
On to `[H]/N=C(/N)N[C@H]1[C@H](O)[C@@H](O)[C@H](O[C@@H]2O[C@@H](C)[C@](O)(C=O)[C@H]2O[C@@H]2O[C@@H](CO)[C@H](O)[C@@H](O)[C@@H]2NC)[C@@H](N/C(N)=N\[H])[C@@H]1O` [Streptomycin, streptomycin], for which the MIC is 0.5 µg/mL (≈ 0.86 µM) in the experiment on VTT-E-193585 strain [1] and 4 µg/mL (≈ 6.88 µM) in experiment [3]. Moreover, in the experiment on VTT-E-193585 strain [2], the “MIC for VTT-E-193585 compared with E. coli ATCC 25922” value is “lower or comparable”.
For colistin, the “Minimum Inhibitory Concentration (MIC)” value was determined as 4 µg/mL in the experiment with VTT-E-193585 strain [1] and 2 µg/mL in experiment [3]. For the same compound, the “MIC for VTT-E-193585 compared with E. coli ATCC 25922” value with VTT-E-193585 strain [2] is on record as “higher”.
As to `CC1(C)S[C@@H]2[C@H](NC(=O)[C@H](N)c3ccccc3)C(=O)N2[C@H]1C(=O)O` [Ampicillin, ampicillin], the MIC in the experiment on VTT-E-193585 strain [1] was determined as 16 µg/mL (≈ 45.8 µM); in experiment [3], 8 µg/mL (≈ 22.9 µM). In the experiment on VTT-E-193585 strain [2], the “MIC for VTT-E-193585 compared with E. coli ATCC 25922” value is “higher”.
In the case of gentamicin, the “Minimum Inhibitory Concentration (MIC)” value (in the experiment with VTT-E-193585 strain [1]; in experiment [3]) was 0.5 µg/mL throughout. For the same compound, in the experiment with VTT-E-193585 strain [2], the “MIC for VTT-E-193585 compared with E. coli ATCC 25922” value was “lower or comparable”.
